Broadly, the IC50 is the concentration that gives 50% inhibition.

For this experiment, the system named is E. coli UTI89 K1F phage lysis, alamar blue, 2 h. As to the kind of experiment: inhibition of K1F phage lysis, E. coli UTI89, bacterial capsule biogenesis inhibitors, alamar blue (AID 488966).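 Also: capsule biogenesis inhibitors block K1F phage lysis so surviving cells raise fluorescence; higher fluorescence means more inhibition of phage lysis.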 On the technique in general: Resazurin is reduced to fluorescent resorufin, in cell work by metabolically active cells.
In the case of `O=C(NCc1cc([N+](=O)[O-])ccc1O)c1cccnc1Sc1ccccc1`, the IC50 is 128 µM. In the case of `O=C(NCc1cc([N+](=O)[O-])ccc1O)c1cccnc1Sc1ccccc1Cl` it was 175 µM.

For the molecule `CCCOc1ccc(C(=O)C(CCC(CNCC)C(=O)c2ccc(OCCC)cc2)CNCC)cc1` (stereo not given), the IC50 was 132 µM. Regarding `COc1cc(/C=N/N=C(N)N)ccc1OCc1ccccc1Cl`, the IC50 is 56.4 µM.

On to `Cc1cccc(C)c1NC(=O)C[N+](C)(C)CC(O)COc1cccc2ccccc12` (stereo not given), for which the IC50 was 91 µM. In the case of `O=C(ONc1ccc(N=NC(=O)c2ccccc2O)cc1)c1ccccc1` it was 72.7 µM. Take `CCN(CCCl)c1cc(CN(C)C)cc(NC(=O)c2ccc(C(=O)Nc3cc(CN(C)C)cc(N(CC)CCCl)c3)cc2)c1`: the IC50 is 118 µM. For `COc1ccc2nc(NC(=O)c3ccc(Br)s3)sc2c1`, the IC50 was 59.7 µM. As for `O=C(Nc1cccc(C2=NCCN2)c1)Nc1cccc(C2=NCCN2)c1`, the IC50 is 251 µM. Regarding `N=C(N)c1ccc(/C=C/c2ccc(C(=N)N)cc2O)cc1`, the IC50 is 11.1 µM. As to `CCC1=NN2C(=N)/C(=C\c3ccc(SCc4ccco4)o3)C(=O)N=C2S1`, the IC50 is 68.7 µM.

`NC(N)=N/N=C/c1ccc(OCc2ccccc2)cc1`: the IC50 was 60.8 µM.

On to `O=C1C2(Cl)C3(Cl)C4(Cl)C(Cl)(Cl)C5(Cl)C3(Cl)C1(Cl)C5(Cl)C24Cl` (stereo not given), for which the IC50 is 74.8 µM. Regarding `CCN(CC)c1ccc2c(-c3ccc(S(=O)(=O)O)cc3S(=O)(=O)[O-])c3ccc(=[N+](CC)CC)cc-3oc2c1`, the IC50 was 30.6 µM. Take `O=C(COc1ccc(Cl)cc1Cl)Nc1ccc(C(=O)Nc2ccccc2C(=O)O)cc1`: the half-inhibitory concentration (IC50) is 74.6 µM. Turning to `C=CCOc1ccc(C2c3c(oc4ccccc4c3=O)C(=O)N2CCCN2CCOCC2)cc1` (stereo not given), the IC50 was 200 µM. For the molecule `Cc1cc(C)c(NC(=O)C[N+](C)(C)CC(O)COc2cccc3ccccc23)c(C)c1` (stereo not given), the IC50 is 82.2 µM. Regarding `O=C1c2c(O)ccc(O)c2C(=O)c2c(NCCNCCO)ccc(NCCNCCO)c21`, the 50% inhibitory concentration (IC50) was 211 µM.

For `CCN(CC)CCCNc1nc2ccccc2c2[nH]c3ccc(OC)cc3c12`, the IC50 was 86.6 µM.

As to `N=C(N)SCCc1cccc(CCSC(=N)N)c1`, the IC50 was 114 µM. Consider `O=C(Nc1ccncc1)c1ccc2ncsc2c1`, for which the IC50 is 123 µM. Take `Cc1ccccc1NC(=NCCCN1CC1)Nc1ccccc1C`: the IC50 was 286 µM. Consider `CC1(C(=O)O)CCC(C(=O)Nc2ccc3ccccc3c2)C1(C)C` (stereo not given), for which the IC50 was 178 µM. In the case of `N=c1n(CCN2CCCC2)c2ccccc2n1CC(O)c1ccc(Cl)c(Cl)c1` (stereo not given) it was 140 µM; in that of `Cc1ccc(C2c3c(oc4cc(C)c(C)cc4c3=O)C(=O)N2CCCN2CCOCC2)cc1` (stereo not given), 228 µM.

The record behind these values is PubChem BioAssay AID488966 (Southern Research Specialized Biocontainment Screening …, 2010).
